Data taken from patent US20230107642A1 (Erasca, Inc., priority 2020, published 2023).

What follows are compounds tested against T1, K-Ras G12C (Homo sapiens, UniProt P01116, G12C) (assay: CAF assay (% CAF; method in Example 7, not in this part)). Details: 10 uM compound, 1 h incubation.
T1 construct: This protein contained 188 amino acids in total, including an N-terminal 6-Histidine tag; made in house; host or cells: E. coli BL21
Format: binding

% CAF @ 10 uM, 1h	SMILES
97%	C=CC(=O)N1[C@H](C)CN(c2nc(=O)n3c4c(c(-c5ccc(F)cc5)c(C(F)(F)F)cc24)SC[C@@H](OC)C3)C[C@@H]1C [Example 585, (S)-8-((3S,5R)-4-acryloyl-3,5-dimethylpiperazin-1-yl)-11-(4-fluorophenyl)-3-methoxy-10-(trifluoromethyl)-3,4-dihydro-2H,6H-[1,4]thiazepino[2,3,4-ij]quinazolin-6-one]
15.7%	C=CC(=O)N1CCN(c2nc(=O)n3c4c(c(-c5cc(Cl)c(F)cc5F)c(Cl)cc24)SC[C@@H]3CN2CCC3(CC2)COC3)[C@@H](C)C1 (atropisomer, axis not shown) [Example 483, (3S,10R)-3-((2-oxa-7-azaspiro[3.5]nonan-7-yl)methyl)-7-((S)-4-acryloyl-2-methylpiperazin-1-yl)-9-chloro-10-(5-chloro-2,4-difluorophenyl)-2,3-dihydro-5H-[1,4]thiazino[2,3,4-ij]quinazolin-5-one]
48.8%	C=CC(=O)N1C[C@H](C)N(c2nc(=O)n3c4c(c(-c5cc(Cl)c(F)cc5F)c(C(F)(F)F)cc24)SC[C@@H]3COC)C[C@H]1C (atropisomer, axis not shown) [Example 544, (3S,10S)-7-((2S,5R)-4-acryloyl-2,5-dimethylpiperazin-1-yl)-10-(5-chloro-2,4-difluorophenyl)-3-(methoxymethyl)-9-(trifluoromethyl)-2,3-dihydro-5H-[1,4]thiazino[2,3,4-ij]quinazolin-5-one]
95.6%	C=CC(=O)N1[C@H](C)CN(c2nc(=O)n3c4c(c(-c5ccc(F)cc5F)c(C(F)(F)F)cc24)SC[C@@H]3CN2C[C@@H]3C[C@H]2CO3)C[C@@H]1C [Example 560, (3S)-3-(((1S,4S)-2-oxa-5-azabicyclo[2.2.1]heptan-5-yl)methyl)-7-((3S,5R)-4-acryloyl-3,5-dimethylpiperazin-1-yl)-10-(2,4-difluorophenyl)-9-(trifluoromethyl)-2,3-dihydro-5H-[1,4]thiazino[2,3,4-ij]quinazolin-5-one]
63.5%	C=CC(=O)N1CCN(c2nc(=O)n3c4c(c(-c5ccc(F)cc5Cl)c(Cl)cc24)SCC3)[C@@H](C)C1 [Example 427, 7-((S)-4-acryloyl-2-methylpiperazin-1-yl)-9-chloro-10-(2-chloro-4-fluorophenyl)-2,3-dihydro-5H-[1,4]thiazino[2,3,4-ij]quinazolin-5-one]
79.7%	C=CC(=O)N1C[C@H](C)N(c2nc(=O)n3c4c(c(-c5cc(F)c(F)cc5F)c(Cl)cc24)SC[C@@H]3CN2CCC3(CC2)COC3)C[C@H]1C [Example 460]
93.3%	C=CC(=O)N1CCN(c2nc(=O)n3c4c(c(-c5ccc(F)cc5F)c(Cl)cc24)SC[C@@H]3CN2CCN(C)CC2)[C@@H](C)C1 [Example 411, (3S)-7-((S)-4-acryloyl-2-methylpiperazin-1-yl)-9-chloro-10-(2,4-difluorophenyl)-3-((4-methylpiperazin-1-yl)methyl)-2H-[1,4]thiazino[2,3,4-ij]quinazolin-5(3H)-one]
96.2%	C=CC(=O)N1[C@H](C)CN(c2nc(=O)n3c4c(c(-c5ccc(F)cc5F)c(C(F)(F)F)cc24)SC[C@@H]3COC)C[C@@H]1C [Example 513, (3S)-7-((3S,5R)-4-acryloyl-3,5-dimethylpiperazin-1-yl)-10-(2,4-difluorophenyl)-3-(methoxymethyl)-9-(trifluoromethyl)-2H-[1,4]thiazino[2,3,4-ij]quinazolin-5(3H)-one]
97%	C=CC(=O)N1CCN(c2nc(=O)n3c4c(c(-c5ccc(F)cc5)c(C(F)(F)F)cc24)SC[C@@H](OC)C3)[C@@H](C)C1 [Example 532, (S)-8-((S)-4-acryloyl-2-methylpiperazin-1-yl)-11-(4-fluorophenyl)-3-methoxy-10-(trifluoromethyl)-3,4-dihydro-2H,6H-[1,4]thiazepino[2,3,4-ij]quinazolin-6-one]
68.6%	C=CC(=O)N1C[C@H](C)N(c2nc(=O)n3c4c(c(-c5ccc(F)cc5F)c(Cl)cc24)SC[C@@H]3CN2CCn3c(nnc3C(F)(F)F)C2)C[C@H]1C [Example 468, (3S)-7-((2S,5R)-4-acryloyl-2,5-dimethylpiperazin-1-yl)-9-chloro-10-(2,4-difluorophenyl)-3-((3-(trifluoromethyl)-5,6-dihydro-[1,2,4]triazolo[4,3-a]pyrazin-7(8H)-yl)methyl)-2H-[1,4]thiazino[2,3,4-ij]quinazolin-5(3H)-one]
97%	C=CC(=O)N1[C@H](C)CN(c2nc(=O)n3c4c(c(-c5ccc(F)cc5)c(C(F)(F)F)cc24)SC[C@H](OC)C3)C[C@@H]1C [Example 584, (R)-8-((3S,5R)-4-acryloyl-3,5-dimethylpiperazin-1-yl)-11-(4-fluorophenyl)-3-methoxy-10-(trifluoromethyl)-3,4-dihydro-2H,6H-[1,4]thiazepino[2,3,4-ij]quinazolin-6-one]

Same assay, conditions: 10 uM, 1 h; Table 3

% CAF @ 10 uM, 1h	SMILES
82.4%	C=CC(=O)N1CCN(c2nc(=O)n3c4c(c(-c5ccc(F)cc5F)c(Cl)cc24)SC[C@H]3CC2CCN(C)CC2)[C@@H](C)C1 [Example 87, (3R)-7-((S)-4-acryloyl-2-methylpiperazin-1-yl)-9-chloro-10-(2,4-difluorophenyl)-3-((1-methylpiperidin-4-yl)methyl)-2,3-dihydro-5H-[1,4]thiazino[2,3,4-ij]quinazolin-5-one]
0%	C=CC(=O)N1CCN(c2nc(=O)n3c4c(c(-c5cccc6cnn(C)c56)c(Cl)cc24)SCC3)[C@@H](C)C1 (atropisomer, axis not shown) [Example 107, (S)-7-((S)-4-acryloyl-2-methylpiperazin-1-yl)-9-chloro-10-(1-methyl-1H-indazol-7-yl)-2,3-dihydro-5H-[1,4]thiazino[2,3,4-ij]quinazolin-5-one]
86.8%	C=CC(=O)N1CCN(c2nc(=O)n3c4c(c(-c5c(F)cc(F)cc5F)c(Cl)cc24)SC[C@H]3COC)[C@@H](C)C1 [Example 137, (R)-7-((S)-4-acryloyl-2-methylpiperazin-1-yl)-9-chloro-3-(methoxymethyl)-10-(2,4,6-trifluorophenyl)-2,3-dihydro-5H-[1,4]thiazino[2,3,4-ij]quinazolin-5-one]
24%	C=CC(=O)N1CCN(c2nc(=O)n3c4c(c(-c5cccc6ccccc56)c(Cl)cc24)SCC3)[C@@H](C)C1 [Example 154, (R)-7-((S)-4-acryloyl-2-methylpiperazin-1-yl)-9-chloro-10-(naphthalen-1-yl)-2,3-dihydro-5H-[1,4]thiazino[2,3,4-ij]quinazolin-5-one]
52.8%	C=CC(=O)N1CCN(c2nc(=O)n3c4c(c(-c5ccc(F)cc5F)c(Cl)cc24)S(=O)(=O)CC3)[C@@H](C)C1 [Example 149, (S)-7-((S)-4-acryloyl-2-methylpiperazin-1-yl)-9-chloro-10-(2,4-difluorophenyl)-2,3-dihydro-5H-[1,4]thiazino[2,3,4-ij]quinazolin-5-one 1,1-dioxide]

SMILES	% CAF @ 10 uM, 1h
C=CC(=O)N1C2CC(=O)CC1CN(c1nc(=O)n3c4c(c(-c5ccc(F)cc5F)c(C(F)(F)F)cc14)SCC3)C2 [Example 101, 7-(9-acryloyl-7-oxo-3,9-diazabicyclo[3.3.1]nonan-3-yl)-10-(2,4-difluorophenyl)-9-(trifluoromethyl)-2,3-dihydro-5H-[1,4]thiazino[2,3,4-ij]quinazolin-5-one]	96.5%

Same assay, conditions: 10 μM, 1 h; Table 4

% CAF @ 10 μM, 1 h	SMILES
86.8%	C=CC(=O)N1CCN(c2nc(=O)n3c4c(c(-c5c(F)cc(F)cc5F)c(Cl)cc24)SC[C@H]3COC)[C@@H](C)C1 [Example 137, (R)-7-((S)-4-acryloyl-2-methylpiperazin-1-yl)-9-chloro-3-(methoxymethyl)-10-(2,4,6-trifluorophenyl)-2,3-dihydro-5H-[1,4]thiazino[2,3,4-ij]quinazolin-5-one]
